Here are results for two compounds from patent US20080164212A1, “Method for Determining and Controlling the Formation of Deposits In a Water System” (ASHLAND LICENSING AND INTELLECTUAL PROPERTY LLC., priority 2005, published 2008).

The assay relates to total germ count (aerobic bacteria) in wire water of a newsprint paper machine. Nature of the assay: Total germ count by plating on agar, wire water in a flow cell system dosed daily with biocide. The assay is classed as cell-based. The note with it: 5 days in a flow cell, 48° C. As to the method: Furthermore, conventional platings on agar (Plate Count Agar from Merck, Darmstadt, Germany) were also carried out to obtain an indication of the total germ counts.
The aim was to determine the correlation between the results of a conventional biocide screening and the real formation of slime deposits. The investigations were carried on the wire water of a newsprint paper machine using 100% TMP. With a biocide screening, it was possible to determine the optimum biocide concentration for the achievement of a germ count reduction by 10^2 within 30 minutes. In order to follow slime formation at this biocide concentration, a flow cell system with suspended coupons was employed.
The wire water, which was also used for the biocide screening, was poured into the storage bottles of this system and enriched with a number of clots of slime from the wire water channel. The investigation was carried out at system temperature (in this case 48° C.). During the test period of 5 days, biocide was dosed daily. After exposure, the coupons were immediately selectively dyed in order to distinguish between live and dead organisms and then analysed with CLSM. Samples were plated on an agar medium (aerobically) at the same time.

`N#CC(Br)(Br)C(N)=O` [DBNPA, dibromonitrile propionamide]: the Total germ count (DBNPA 40 ppm product) is less than 1000 cfa/ml.
Under “peracetic acid 60 ppm product”, `CC(=O)OO` [peracetic acid] gave a Total germ count of less than 1000 cfu/ml.
